These results are taken from patent US12011460B2, “Expansion of NK and DC cells in vivo mediating immune response” (UNIVERSITE DE MONTREAL, priority 2018, dated 2024).

For test [1], the system named is CD34 + CD45RA- cells. Briefly: Expansion of CD34+CD45RA- cells compared to DMSO (EC50). It is filed as cell-based. The following applies: concentration of compound necessary to expand 50% more of CD34+CD45RA- cells as compared to cells treated with DMSO.
The test system of test [2] is cord blood derived CD34+ cells. Briefly: Ex vivo culture of cord blood derived CD34+ cells, graft composition by flow. It is filed as cell-based, human. The following applies: expanded cord blood; UM171 35 nM, SR1 500 nM.

With `COC(=O)c1ccc2c(c1)[nH]c1nc(Cc3cccc(C)c3)nc(NCCCN3CCCCC3)c12` [Compound 1], in test [1], the EC50 stood at 0.038 µM.
Same read-out and setting: for `COC(=O)c1ccc2c(c1)[nH]c1nc(Cc3cccc(F)c3)nc(NCCCN3CCCCC3)c12` [Compound 2] the value was 0.02 µM; for `COC(=O)c1ccc2c(c1)[nH]c1nc(Cc3cccs3)nc(NCCCN3CCCCC3)c12` [Compound 3], 0.008 µM.
Still for that read-out and setting: for `COC(=O)c1ccc2c(c1)[nH]c1nc(Cc3cccnc3)nc(NCCCN3CCCCC3)c12` [Compound 4] the value was 0.014 µM; for `CCOC(=O)c1ccc2c(c1)[nH]c1nc(Cc3ccccc3)nc(NCCCN3CCCCC3)c12` [Compound 5], 0.154 µM; for `COC(=O)c1ccc2c(c1)[nH]c1nc(Cc3cccc(C(O)C(F)(F)F)c3)nc(NCCCN3CCCCC3)c12` (centres unmarked) [Compound 6], 0.016 µM.
Same read-out and setting: next, `COC(=O)c1ccc2c(c1)[nH]c1nc(Cc3cccc(C(=O)C(F)(F)F)c3)nc(NCCCN3CCCCC3)c12` [Compound 7]: 0.031 µM.
For the molecule `COC(=O)c1ccc2c(c1)[nH]c1nc(Cc3ccc4ccccc4c3)nc(NCCCN3CCCCC3)c12` [Compound 8], in test [1], the EC50 stood at 0.15 µM.
On the same count and under the same terms, for `C#CCOC(CNc1nc(Cc2ccccc2)nc2[nH]c3cc(C(=O)OC)ccc3c12)CN1CCCCC1` (centres unmarked) [Compound 9] the value was 0.024 µM.
As to `COC(=O)c1ccc2c(c1)[nH]c1nc(Cc3ccccc3)nc(NCC(O)CN3CCCCC3)c12` (centres unmarked) [Compound 10], the concentration giving a half-maximal response (EC50) in test [1] turned out to be 0.007 µM.
Still for that read-out and setting: for `COC(=O)c1ccc2c(c1)[nH]c1nc(Cc3ccccc3)nc(NCCCN(C)CC(O)COCc3ccccc3)c12` (centres unmarked) [Compound 11] the value was 0.101 µM; for `CNC(=O)c1ccc2c(c1)[nH]c1nc(Cc3ccccc3)nc(NCCCN3CCCCC3)c12` [Compound 12], 2.44 µM.
In the case of `COC(=O)c1ccc2c(c1)[nH]c1nc(C(OC)c3ccccc3)nc(NCCCN3CCCCC3)c12` (centres unmarked) [Compound 13], in test [1], the EC50 is 0.068 µM.
Same read-out and setting: for `COC(=O)c1ccc2c(c1)[nH]c1nc(C(O)c3ccccc3)nc(NCCCN3CCCCC3)c12` (centres unmarked) [Compound 14] the value was 0.004 µM.
Same read-out and setting: for `COC(=O)c1ccc2c(c1)[nH]c1nc(Cc3ccccc3)nc(SCCCN3CCCCC3)c12` [Compound 15] the value was 0.327 µM.
The same measure, in the same setting: next, `COC(=O)c1ccc2c(c1)[nH]c1nc(C(=O)c3ccccc3)nc(SCCCN3CCCCC3)c12` [Compound 16]: 0.005 µM.
For the molecule `COC(=O)c1ccc2c(c1)[nH]c1nc(Cc3ccccc3)nc(CCCCN3CCCCC3)c12` [Compound 17], the EC50 in test [1] was 0.015 µM.
Still for that read-out and setting: for `COC(=O)c1ccc2c(c1)[nH]c1nc(C(C)c3ccccc3)nc(NCCCN3CCCCC3)c12` (centres unmarked) [Compound 18] the value was 0.067 µM; for `COC(=O)c1ccc2c(c1)[nH]c1nc(Cc3cccc(CO)c3)nc(NCCCN(C)CCCN)c12` [Compound 19], 0.038 µM; for `COC(=O)c1ccc2c(c1)[nH]c1nc(Cc3cccc(CC(=O)O)c3)nc(NCCCN(C)CCCN)c12` [Compound 20], 0.113 µM.
The same measure, in the same setting: for `COC(=O)c1ccc2c(c1)[nH]c1nc(Cc3ccccc3)nc(NCCCN(C)CCCNc3ncnc4[nH]c5ccccc5c34)c12` [Compound 21] the value was 0.019 µM; for `CN1CCN(c2ccc(CNc3nc(Cc4ccccc4)nc4[nH]c5cc(-c6nnn(C)n6)ccc5c34)cc2)CC1` [Compound 22], 0.1 µM; for `CN(CCCNC(=O)COCCOCCN)CCCNc1nc(Cc2ccccc2)nc2[nH]c3cc(-c4nnn(C)n4)ccc3c12` [Compound 23], 0.249 µM.
With `CN(CCCN)CCCNc1nc(Cc2ccccc2Br)nc2[nH]c3cc(-c4nnn(C)n4)ccc3c12` [Compound 24], the half-maximal effective concentration (EC50) in test [1] turned out to be 0.051 µM.
On the same count and under the same terms, for `CN(CCCN)CCCNc1nc(Cc2cccc(Br)c2)nc2[nH]c3cc(-c4nnn(C)n4)ccc3c12` [Compound 25] the value was 0.115 µM; for `CN(CCC[N+](C)(C)C)c1nc(Cc2ccccc2)nc2[nH]c3cc(-c4nnn(C)n4)ccc3c12` [Compound 26], 0.484 µM.
On the same count and under the same terms, next, `Cn1nnc(-c2cnc3c(c2)[nH]c2nc(Cc4ccccc4)nc(N[C@H]4CC[C@H](N)CC4)c23)n1` [Compound 27]: 0.367 µM.
The same measure, in the same setting: for `Cn1nnc(-c2ccc3c(c2)[nH]c2ncnc(NCCCN4CCC(O)CC4)c23)n1` [Compound 28] the value was 0.277 µM.
Regarding `Cn1nnc(-c2ccc3c(c2)[nH]c2ncnc(NCCCCN4CCCCC4)c23)n1` [Compound 29], the EC50 in test [1] worked out at 0.036 µM.
As for `CNCCCNc1ncnc2[nH]c3cc(-c4nnn(C)n4)ccc3c12` [Compound 30], in test [1], the EC50 came to 0.135 µM.
`CCN(CC)CCN(CC)c1nc(Cc2ccccc2)nc2[nH]c3cc(C(=O)OC)cnc3c12` [Compound 31]: the concentration for a half-maximal effect (EC50) in test [1] worked out at 0.394 µM.
Same read-out and setting: for `C#Cc1cccc(Cc2nc(NCCN(C)CCN)c3c(n2)[nH]c2cc(-c4nnn(C)n4)ccc23)c1` [Compound 32] the value was 0.104 µM.
On the same count and under the same terms, for `COC(=O)c1ccc2c(c1)[nH]c1nc(Cc3ccccc3)nc(NCCNS(C)(=O)=O)c12` [Compound 33] the value was 0.033 µM; for `COC(=O)c1ccc2c(c1)[nH]c1cc(Cc3cccc(OC)c3)nc(NCCCCN3CCCC3)c12` [Compound 34], 0.076 µM; for `COC(=O)c1ccc2c(c1)[nH]c1cc(Cc3cccc(O)c3)nc(NCCCCN3CCCC3)c12` [Compound 35], 0.044 µM.
On the same count and under the same terms, next, `[H]/N=C(/N)NCCNc1nc(Cc2ccccc2)nc2[nH]c3cc(C(=O)OC)ccc3c12` [Compound 36]: 0.068 µM; `COC(=O)c1ccc2c(c1)[nH]c1nc(Cc3ccccc3)nc(NCCN(C)C(C)=O)c12` [Compound 37]: 0.083 µM; `COC(=O)c1ccc2c(c1)[nH]c1cc(Cc3cccnc3)cc(NCCCN3CCOCC3)c12` [Compound 38]: 0.704 µM.
As to `COC(=O)c1ccc2c(c1)[nH]c1cc(Cc3ccsc3)nc(N[C@H]3CC[C@H](N)CC3)c12` [Compound 39], the EC50 in test [1] is 0.114 µM.
Same read-out and setting: for `COC(=O)c1ccc2c(c1)[nH]c1nc(Cc3ccccc3)nc(NCCCCCN(C)C)c12` [Compound 40] the value was 0.002 µM; for `COC(=O)c1ccc2c(c1)[nH]c1nc(Cc3ccccc3)nc(NCCCCCCCCN)c12` [Compound 41], 0.039 µM.
Take `COC(=O)c1ccc2c(c1)[nH]c1nc(Cc3ccccc3)nc(NCCN3CCOCC3)c12` [Compound 42]: the 50% effective concentration (EC50) in test [1] turned out to be 0.012 µM.
`CNS(=O)(=O)c1cccc(Nc2ncnc3[nH]c4cc(C(=O)OC)ccc4c23)c1` [Compound 43]: the EC50 in test [1] came to 0.263 µM.
Take `COC(=O)c1ccc2c(c1)[nH]c1nc(Cc3ccccc3)nc(NCC(O)CO)c12` (centres unmarked) [Compound 44]: in test [1], the concentration giving a half-maximal response (EC50) amounted to 0.059 µM.
Regarding `COC(=O)c1ccc2c(c1)[nH]c1nc(Cc3ccccc3)nc(NCCN(C)CC(F)F)c12` [Compound 45], the concentration for a half-maximal effect (EC50) in test [1] is 0.336 µM.
Still for that read-out and setting: next, `Cn1nnc(-c2ccc3c(c2)[nH]c2nc(Cc4ccccc4)nc(NCCOCCO)c23)n1` [Compound 46]: 0.141 µM; `COC(=O)c1ccc2c(c1)[nH]c1nc(Cc3ccccc3)nc(NCCCO)c12` [Compound 47]: 0.026 µM; `COC(=O)c1ccc2c(c1)[nH]c1nc(Cc3ccccc3)nc(NCCCN(C)CCCNC(=N)N)c12` [Compound 48]: 0.061 µM.
On the same count and under the same terms, next, `COC(=O)c1ccc2c(c1)[nH]c1nc(Cc3ccccc3)nc(NCCCN3C(=O)CCC3=O)c12` [Compound 49]: 0.041 µM; `COC(=O)c1ccc2c(c1)[nH]c1nc(Cc3ccccc3)nc(NCCS(N)(=O)=O)c12` [Compound 50]: 0.067 µM.
Still for that read-out and setting: next, `CNS(=O)(=O)c1ccc(CNc2nc(Cc3ccccc3)nc3[nH]c4cc(C(=O)OC)ccc4c23)cc1` [Compound 51]: 0.062 µM; `COC(=O)c1ccc2c(c1)[nH]c1nc(Cc3ccccc3)nc(NCC3CCCNC3)c12` (centres unmarked) [Compound 52]: 0.007 µM.
`COC(=O)c1ccc2c(c1)[nH]c1nc(CCc3ccccc3)nc(NCCCN(C)CC(O)C[N+](C)(C)C)c12` (centres unmarked) [Compound 53]: the concentration for a half-maximal effect (EC50) in test [1] turned out to be 0.117 µM.
Same read-out and setting: for `COC(=O)c1ccc2c(c1)[nH]c1nc(Cc3ccccc3)nc(NCCCCO)c12` [Compound 54] the value was 0.118 µM.
The same measure, in the same setting: next, `COC(=O)c1ccc2c(c1)[nH]c1nc(Cc3ccccc3)nc(NCC3CCCN(C(=O)OC)C3)c12` (centres unmarked) [Compound 55]: 0.079 µM; `COC(=O)c1ccc2c(c1)[nH]c1nc(Cc3ccccc3)nc(NCc3cnc(C)cn3)c12` [Compound 56]: 0.048 µM; `CCNCCNc1nc(Cc2ccccc2)nc2[nH]c3cc(C(=O)OC)ccc3c12` [Compound 57]: 0.0048 µM.
Same read-out and setting: next, `COC(=O)c1ccc2c(c1)[nH]c1nc(Cc3ccccc3)nc(NCCC#N)c12` [Compound 58]: 0.079 µM.
For `COC(=O)c1ccc2c(c1)[nH]c1nc(Cc3ccccc3)nc(NCCNC3=NCCC3)c12` [Compound 59], the EC50 in test [1] turned out to be 0.075 µM.
On the same count and under the same terms, for `COC(=O)c1ccc2c(c1)[nH]c1nc(Cc3ccccc3)nc(NNc3ccc(S(C)(=O)=O)cc3)c12` [Compound 60] the value was 0.023 µM; for `COC(=O)c1ccc2c(c1)[nH]c1nc(Cc3ccccc3)nc(NCCN(C(C)C)C(C)C)c12` [Compound 61], 0.0101 µM.
As for `CC(C)n1cnc2c(NCCc3ccc(O)cc3)nc(-c3csc4ccccc34)nc21` [SR1], the “dendritic cells population (CD86+CD34+) share of the graft” value in test [2] was “less than 5%”.

In general, EC50 refers to the concentration that produces a half-maximal response.
